Data: patent US11931424B2, “Combination MCL-1 inhibitors with anti-body drug conjugates” (Gilead Sciences, Inc., priority 2021, dated 2024)

Tested on: panel of breast cancer cell lines
Assay: Compound A with targeted agents and chemotherapies, 72-hour in vitro proliferation assays
Format: cell-based
Conditions: compound A × partner, 72-hour proliferation

Cn1ncnc1[C@H]1c2n[nH]c(=O)c3cc(F)cc(c23)N[C@@H]1c1ccc(F)cc1 [BMN 673]
Best CI (AU565 cell line): 0.72
Bliss Volume (AU565 cell line): 5.62
HSA volume (AU565 cell line): 2.94
Synergy Score (AU565 cell line): 8.12
Best CI (BT-20 cell line): 0.67
Bliss Volume (BT-20 cell line): 6.61
HSA volume (BT-20 cell line): 7.19
Loewe Volume (BT-20 cell line): 7.05
Synergy Score (BT-20 cell line): 13.00
Best CI (CAL-51 cell line): 0.26
Bliss Volume (CAL-51 cell line): 6.45
HSA volume (CAL-51 cell line): 8.03
Loewe Volume (CAL-51 cell line): 8.01
Synergy Score (CAL-51 cell line): 6.14
Best CI (CAL-85-1 cell line): 0.10
Bliss Volume (CAL-85-1 cell line): 9.61
HSA volume (CAL-85-1 cell line): 13.84
Loewe Volume (CAL-85-1 cell line): 13.04
Synergy Score (CAL-85-1 cell line): 13.48
Best CI (CAL-120 cell line): 2.73
Bliss Volume (CAL-120 cell line): −3.70
HSA volume (CAL-120 cell line): −7.12
Loewe Volume (CAL-120 cell line): −9.94
Synergy Score (CAL-120 cell line): 0.01
Best CI (CAL-148 cell line): 0.03
Bliss Volume (CAL-148 cell line): 32.27
HSA volume (CAL-148 cell line): 30.51
Loewe Volume (CAL-148 cell line): 33.70
Synergy Score (CAL-148 cell line): 51.37
Best CI (CAMA-1 cell line): 0.44
Bliss Volume (CAMA-1 cell line): 14.84
HSA volume (CAMA-1 cell line): 11.15
Loewe Volume (CAMA-1 cell line): 11.46
Best CI (DU-4475 cell line): 0.90
Bliss Volume (DU-4475 cell line): 14.54
HSA volume (DU-4475 cell line): 11.67
Loewe Volume (DU-4475 cell line): 11.80
Synergy Score (DU-4475 cell line): 12.59
Best CI (EVSA-T cell line): 0.76
Bliss Volume (EVSA-T cell line): 12.51
HSA volume (EVSA-T cell line): 5.77
Loewe Volume (EVSA-T cell line): 5.78
Synergy Score (EVSA-T cell line): 7.17
Best CI (HCC38): 0.09
Bliss Volume (HCC38): 12.68
Loewe Volume (HCC38): 13.43
Synergy Score (HCC38): 20.73
Best CI (HCC70): 0.39
Bliss Volume (HCC70): 15.24
HSA volume (HCC70): 15.02
Loewe Volume (HCC70): 15.13
Best CI (HCC1143 cell line): 0.53
Bliss Volume (HCC1143 cell line): 0.82
HSA volume (HCC1143 cell line): 2.15
Loewe Volume (HCC1143 cell line): 1.38
Synergy Score (HCC1143 cell line): 4.91
Best CI (HCC1569): 0.55
Bliss Volume (HCC1569): 9.55
HSA volume (HCC1569): 11.82
Loewe Volume (HCC1569): 11.51
Synergy Score (HCC1569): 10.50
Best CI (HCC1806): 0.15
Bliss Volume (HCC1806): 15.34
HSA volume (HCC1806): 21.19
Loewe Volume (HCC1806): 21.61
Synergy Score (HCC1806): 26.09
Best CI (HCC1937): 0.51
Bliss Volume (HCC1937): 5.18
HSA volume (HCC1937): 0.65
Loewe Volume (HCC1937): 4.96
Synergy Score (HCC1937): 3.27
Best CI (HCC1954): 0.56
Bliss Volume (HCC1954): 7.66
HSA volume (HCC1954): 7.39
Loewe Volume (HCC1954): 8.33
Synergy Score (HCC1954): 9.80
Best CI (HCC2218): 0.90
Bliss Volume (HCC2218): 1.41
HSA volume (HCC2218): 0.71
Loewe Volume (HCC2218): 0.15
Synergy Score (HCC2218): 5.35
Best CI (HDQ-P1): 0.91
Bliss Volume (HDQ-P1): 0.31
HSA volume (HDQ-P1): −0.95
Loewe Volume (HDQ-P1): −0.15
Synergy Score (HDQ-P1): 1.09
Best CI (HMC-1-8): 0.22
Bliss Volume (HMC-1-8): 22.38
HSA volume (HMC-1-8): 11.38
Loewe Volume (HMC-1-8): 11.09
Synergy Score (HMC-1-8): 19.54
Best CI (JIMT-1): 0.13
Bliss Volume (JIMT-1): −0.56
HSA volume (JIMT-1): −1.70
Loewe Volume (JIMT-1): −1.62
Synergy Score (JIMT-1): 1.28
Best CI (KPL-1): 0.53
Bliss Volume (KPL-1): −2.58
HSA volume (KPL-1): 0.29
Synergy Score (KPL-1): 1.84

Cc1c(-c2ccc(N3CCc4cccc(C(=O)Nc5nc6ccccc6s5)c4C3)nc2C(=O)O)cnn1CC12CC3CC(CC(C3)C1)C2 [Compound A-1331852]
Best CI (BT-20 cell line): 0.01
Bliss Volume (BT-20 cell line): 68.96
HSA volume (BT-20 cell line): 70.29
Loewe Volume (BT-20 cell line): 70.26
Synergy Score (BT-20 cell line): 162.62
Best CI (CAL-51 cell line): 0.01
Bliss Volume (CAL-51 cell line): 56.43
HSA volume (CAL-51 cell line): 55.36
Loewe Volume (CAL-51 cell line): 56.58
Synergy Score (CAL-51 cell line): 118.96
Best CI (CAL-85-1 cell line): 0.01
Bliss Volume (CAL-85-1 cell line): 49.08
HSA volume (CAL-85-1 cell line): 54.69
Loewe Volume (CAL-85-1 cell line): 53.39
Synergy Score (CAL-85-1 cell line): 114.90
Best CI (CAL-120 cell line): 0.04
Bliss Volume (CAL-120 cell line): 28.08
HSA volume (CAL-120 cell line): 26.51
Loewe Volume (CAL-120 cell line): 28.14
Synergy Score (CAL-120 cell line): 55.20
Best CI (CAL-148 cell line): 0.01
Bliss Volume (CAL-148 cell line): 51.23
HSA volume (CAL-148 cell line): 55.15
Loewe Volume (CAL-148 cell line): 56.80
Synergy Score (CAL-148 cell line): 129.75
Best CI (CAMA-1 cell line): 0.02
Bliss Volume (CAMA-1 cell line): 41.48
HSA volume (CAMA-1 cell line): 38.74
Loewe Volume (CAMA-1 cell line): 40.35
Synergy Score (CAMA-1 cell line): 89.71
Best CI (DU-4475 cell line): 0.41
Bliss Volume (DU-4475 cell line): 34.50
HSA volume (DU-4475 cell line): 31.29
Loewe Volume (DU-4475 cell line): 31.62
Synergy Score (DU-4475 cell line): 49.81
Best CI (EVSA-T cell line): 0.11
Bliss Volume (EVSA-T cell line): 31.72
HSA volume (EVSA-T cell line): 28.03
Loewe Volume (EVSA-T cell line): 29.10
Synergy Score (EVSA-T cell line): 63.11
Best CI (HCC38): 0.03
Bliss Volume (HCC38): 36.56
HSA volume (HCC38): 31.80
Loewe Volume (HCC38): 30.82
Synergy Score (HCC38): 60.48
Best CI (HCC70): 0.00
Bliss Volume (HCC70): 73.73
HSA volume (HCC70): 74.12
Loewe Volume (HCC70): 74.78
Synergy Score (HCC70): 173.58
Best CI (HCC1143 cell line): 0.00
Bliss Volume (HCC1143 cell line): 53.10
HSA volume (HCC1143 cell line): 51.70
Loewe Volume (HCC1143 cell line): 52.79
Synergy Score (HCC1143 cell line): 89.24
Best CI (HCC1569): 0.01
Bliss Volume (HCC1569): 43.44
HSA volume (HCC1569): 40.52
Loewe Volume (HCC1569): 40.04
Synergy Score (HCC1569): 86.99
Best CI (HCC1806): 0.00
Bliss Volume (HCC1806): 83.58
HSA volume (HCC1806): 85.67
Loewe Volume (HCC1806): 85.91
Synergy Score (HCC1806): 183.39
Best CI (HCC1937): 0.00
Bliss Volume (HCC1937): 69.83
HSA volume (HCC1937): 71.58
Loewe Volume (HCC1937): 71.06
Synergy Score (HCC1937): 157.43
Best CI (HCC1954): 0.01
Bliss Volume (HCC1954): 53.64
HSA volume (HCC1954): 55.54
Loewe Volume (HCC1954): 55.53
Synergy Score (HCC1954): 121.26
Best CI (HCC2218): 0.01
Bliss Volume (HCC2218): 47.29
HSA volume (HCC2218): 47.84
Loewe Volume (HCC2218): 46.72
Synergy Score (HCC2218): 99.88
Best CI (HDQ-P1): 0.01
Bliss Volume (HDQ-P1): 58.35
HSA volume (HDQ-P1): 61.13
Loewe Volume (HDQ-P1): 60.82
Synergy Score (HDQ-P1): 132.76
Best CI (HMC-1-8): 0.11
Bliss Volume (HMC-1-8): 21.81
HSA volume (HMC-1-8): 19.39
Loewe Volume (HMC-1-8): 20.77
Synergy Score (HMC-1-8): 39.01
Best CI (JIMT-1): 0.01
Bliss Volume (JIMT-1): 57.07
HSA volume (JIMT-1): 57.74
Loewe Volume (JIMT-1): 57.21
Synergy Score (JIMT-1): 126.70
Best CI (KPL-1): 0.03
Bliss Volume (KPL-1): 26.84
HSA volume (KPL-1): 25.88
Loewe Volume (KPL-1): 26.65
Synergy Score (KPL-1): 36.44
